Results on three molecules are retold here after US7776597B2, “Method of inducing embryonic stem cells into pancreatic cells” (Beijing Hua Yuan Bo Chuang Technology Limited, priority 2005, dated 2010).

Assay [1] relates to ES-R1 cells. Kind of assay: RT-PCR analysis of marker gene expression in differentiated mouse ES cells. It counts as cell-based, mice. The note with it: end of step 2. How it is done: (§1) Step 1, to induce embryonic body (EB) formation, ES cells were dissociated with trypsin and suspended into Petri dishes (Alpha medical instrument) with 10% FBS/DMEM without LIF. After 24 to 48 hours (See FIG. 1B), EBs were collected and re-plated into 10% FBS/DMEM without LIF in 1% Matrigel (BD Biosciences) coated dishes. Two hours later, EBs began to spread onto the dishes and were cultured in 10% FBS/DMEM with 100 ng/ml activin A (Sigma) for 24 hours. Then EBs were switched to 10% FBS/DMEM for 6-8 hours as an interval. After this interval, the differentiated EB cells were cultured in 10% FBS/DMEM with 10^−6 M RA (Sigma) for another 24 hours.
(§2) Step 3, to mature the insulin producing cells, the expanded cells in step 2 were switched to DMEM/F12 (Gibco-BRL) with N2 supplement (1:100, Gibco-BRL), B27 supplement (1:50 Gibco-BRL), 1 μg/ml Laminin (Sigma), 10 ng/ml bFGF (Sigma) and 10 mM nicotinamide (Sigma) and cultured for 3-5 days (Lumelsky N, Blondel O, Laeng P, et al. Differentiation of embryonic stem cells to insulin-secreting structures similar to pancreatic islets. Science 2001; 292:1389-1394.) The morphology of cells was observed under a Nikon phase-contrast microscope (TS-100).
Total RNA was extracted by Catrimox-14 kit (TaKaRa) from the cells in step 2 or step 3 which were induced by both with and without activin A and RA or with only one of them. […]

Assay [2] deals with ES-R1 cells. Kind of assay: Cell cluster formation on coated dishes during three-step induction. Format: cell-based, mice. The conditions noted are these: dish coating matrix, third step of induction. How it is done:
as §1, §2

With `CC1=C(/C=C/C(C)=C/C=C/C(C)=C/C(=O)O)C(C)(C)CCC1` [RA, All-trans retinoic acid], the “marker genes expressed (RT-PCR)” value in the assay on ES-R1 cells [1] was “express only hnf3β”.
Consider laminin, for which, in the assay on ES-R1 cells [2], the cell cluster formation result is given as “no cell clusters formed”.

B1: activin A: a member of TGF-β superfamily; disulfide-stabilized protein (protein, UniProt P08476 311-426, looked up)
Inhibin beta A chain: GLECDGKVNICCKKQFFVSFKDIGWNDWIIAPSGYHANYCEGECPSHIAGTSGSSLSFHSTVINHYRMRGHSPFANLKSCCVPTKLRPMSMLYYDDGQNIIKKDIQNMIVEECGCS
Regarding B1, the “marker genes expressed (RT-PCR)” value in the assay with ES-R1 cells [1] is “mainly express hnf3β and pdx-1”.
